According to patent publication US9499493B2, “2,4-pyrimidinediamine compounds and their uses” (Rigel Pharmaceuticals, Inc., priority 2002, dated 2016):

What was measured:
[1] = system: cultured human mast cells (CHMC); experiment: CHMC low cell density IgE activation: tryptase assay; assay type: cell-based; conditions: anti-IgE
Summary of the method: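 Degranulation is read as supernatant tryptase activity, using tryptase substrate incubated 30 min at room temperature. Before this, CHMC at low density (1000-1500 cells/well) rest 1 hr at 37° C and are triggered with anti-IgE for 30 min at 37° C.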

[2] = system: cultured human mast cells (CHMC); experiment: CHMC low cell density ionomycin activation: tryptase assay; assay type: cell-based

Row | Compound | IC50 [1] [µM] | IC50 [2] [µM]
1 | CNC(=O)COc1cccc(Nc2ncc(F)c(Nc3ccc(C)c(Cl)c3)n2)c1 [R926839, N4-(3-Chloro-4-methylphenyl)-5-fluoro-N2-[3-(N-methylamino)carbonylmethyleneoxyphenyl]-2,4-pyrimidinediamine] | 0.161 | > 10
2 | CN1CCN(C(=O)CNc2cccc(Nc3ncc(F)c(Nc4cccc(O)c4)n3)c2)CC1 [R950223, 5-Fluoro-N4-(3-hydroxyphenyl)-N2-[3-[N—(N-methyl)piperazino]carbonylmethyleneaminophenyl]-2,4-pyrimidinediamine] | 0.763 | > 10
3 | COC(=O)Cn1ncc2ccc(Nc3ncc(F)c(Nc4ccc5cnn(CC(=O)OC)c5c4)n3)cc21 [R935205, N2,N4-Bis[1-(methoxycarbonyl)methyl-indazoline-6-yl]-5-fluoro-2,4-pyrimidinediamine] | 2.96 | > 10
4 | CNC(=O)COc1cc(Nc2ncc(F)c(Nc3ccc(C)c(OCC(=O)NC)c3)n2)ccc1C [R926760, 5-Fluoro-N2,N4-bis[4-methyl-3-[(N-methylamino)carbonylmethyleneoxy]phenyl]-2,4-pyrimidinediamine] | 2.89 | > 10
5 | CCOC(=O)CNc1cccc(Nc2ncc(F)c(Nc3cccc(NCCO)c3)n2)c1 [R950229, N2-(Ethoxycarbonylmethyleneaminophenyl)-5-fluoro-N4-[3-(2-hydroxyethylamino)phenyl]-2,4-pyrimidinediamine] | 0.98 | > 10
6 | CNC(=O)CCn1ncc2ccc(Nc3ncc(F)c(Nc4ccc(OC(C)C)cc4)n3)cc21 [R935291, 5-Fluoro-N4-(4-isopropoxyphenyl)-N2-[1-[2(N-methylamino)carbonyl]ethyl-indazoline-6-yl]-2,4-pyrimidinediamine] | 1.36 | > 10
7 | NC(=O)COc1ccc(Nc2nc(Nc3cccc(O)c3)ncc2F)cc1 [R945063, N4-[4-(Aminocarbonylmethyleneoxy)phenyl]-5-fluoro-N2-(3-hydroxyphenyl)-2,4-pyrimidinediamine] | 1.55 | > 10
8 | CCOC(=O)CNC(=O)Oc1cccc(Nc2nc(Nc3cccc(OCC(=O)NC)c3)ncc2F)c1 [R926918, N4-[3-[[N-(Ethoxycarbonylmethyl)amino]carbonyloxy]phenyl]-5-fluoro-N2-[3-[(N-methylamino)carbonylmethyleneoxy]phenyl]-2,4-pyrimidinediamine] | 2.52 | > 10
9 | Cn1ncc2cc(Nc3ncc(F)c(Nc4ccc(Cl)c(Cl)c4)n3)ccc21 [R935355, N4-(3,4-Dichlorophenyl)-5-fluoro-N2-(1-methylindazoline-5-yl)-2,4-pyrimidinediamine] | > 10 | > 10
10 | CCOC(=O)c1cnc(Nc2ccc(OCC(=O)OC)cc2)nc1Nc1ccc(OCC(=O)O)cc1 [R926583, N4-(4-Carboxymethyleneoxyphenyl)-5-ethoxycarbonyl-N2-(4-methoxycarbonylmethyleneoxyphenyl)-2,4-pyrimidinediamine] | > 10 | > 10
11 | CCOC(=O)c1cnc(Nc2ccc(OCC(=O)O)cc2)nc1Nc1ccc(OCC(=O)OC)cc1 [R926584, N2-(4-Carboxymethyleneoxyphenyl)-5-ethoxycarbonyl-N4-(4-methoxycarbonylmethyleneoxyphenyl)-2,4-pyrimidinediamine] | > 10 | > 10
12 | OB(O)c1cccc(Nc2ncc(F)c(Nc3ccc4c(c3)OCCO4)n2)c1 [R926837, N2-(3-Boronylphenyl)-N4-(3,4-ethylenedioxyphenyl)-5-fluoro-2,4-pyrimidinediamine] | 2.99 | > 10
13 | CNC(=O)COc1cc(O)cc(Nc2ncc(F)c(Nc3cccc(O)c3)n2)c1 [R926929, 5-Fluoro-N2-[3-hydroxy-5-[(N-methylamino)carbonylmethyleneoxy]phenyl]-N4-(3-hydroxyphenyl)-2,4-pyrimidinediamine] | 1.92 | > 10
14 | OCCCn1ncc2ccc(Nc3ncc(F)c(Nc4ccc5c(c4)OCCO5)n3)cc21 [R935287, N4-(3,4-Ethylenedioxyphenyl)-5-fluoro-N2-[1-(3-hydroxypropyl)indazoline-6-yl]-2,4-pyrimidinediamine] | 0.403 | > 10
15 | COC(=O)Cn1ncc2cc(Nc3ncc(F)c(Nc4ccc5c(cnn5CC(=O)OC)c4)n3)ccc21 [R935211, N2,N4-Bis[1-(methoxycarbonyl)methyl-indazoline-5-yl]-5-fluoro-2,4-pyrimidinediamine] | 1.24 | > 10
16 | COc1ccc(Nc2nc(Nc3cccc(OCC(=O)NCC(O)CO)c3)ncc2F)cc1OC (stereo not drawn) [R926734, N2-[3-(N-2,3-Dihydroxypropylamino)carbonylmethyleneoxyphenyl]-N4-(3,4-dimethoxyphenyl)-5-fluoro-2,4-pyrimidinediamine] | 4.49 | > 10
17 | CNC(=O)CCn1ncc2ccc(Nc3ncc(F)c(Nc4cccc(O)c4)n3)cc21 [R935294, 5-Fluoro-N4-(3-hydroxyphenyl)-N2-[1-[2-(N-methylaminocarbonyl)ethyl]-indazoline-6-yl]-2,4-pyrimidinediamine] | 0.388 | > 10

Row | Compound | IC50 [1] [µM] | IC50 [2] [µM]
18 | Fc1cnc(Nc2ccc3[nH]ncc3c2)nc1Nc1ccc(OC(F)(F)F)c(Cl)c1 [R935366, N4-(3-Chloro-4-trifluoromethoxyphenyl)-5-fluoro-N2-(indazoline-5-yl)-2,4-pyrimidinediamine] | 0.216 | > 10
19 | CC(C)(C)c1ccc(Nc2nc(Nc3cccc(OCC(=O)O)c3)ncc2F)cc1 [R926726, N4-(4-tert-Butylphenyl)-N2-(3-carboxymethyleneoxyphenyl)-5-fluor-2,4-pyrimidinediamine] | > 10 | > 10
20 | CCOC(=O)COc1cccc(Nc2ncc(F)c(Nc3ccc4c(c3)OCCO4)n2)c1 [R926482, N2-(3-Ethoxycarbonylmethyleneoxyphenyl)-N4-(3,4-ethylenedioxyphenyl)-5-fluoro-2,4-pyrimidinediamine] | 1.04 | > 10
21 | COC(=O)COc1cccc(Nc2ncc(F)c(Nc3cc(C)c(OC)c(C)c3)n2)c1 [R945153, N4-(3,5-Dimethyl-4-methoxyphenyl)-5-fluoro-N2-(3-methoxycarbonylmethyleneoxyphenyl)-2,4-pyrimidinediamine] | 0.688 | 6.56
22 | CCOC(=O)C(C)(C)c1ccc(Nc2nc(Nc3ccc(OC(C)C)cc3)ncc2F)cc1 [R935167, N4-[4-[(1-Ethoxycarbonyl-1-methyl)ethyl]phenyl]-5-fluoro-N2-(4-isopropoxyphenyl)-2,4-pyrimidinediamine] | 2.13 | > 10
23 | O=C(COc1cccc(Nc2ncc(F)c(Nc3ccc4c(c3)OCCO4)n2)c1)NC(CO)CO [R926784, N2-[3-(N-1,3-Dihydroxy-2-propylamino)carbonylmethyleneoxyphenyl]-N4-(3,4-ethylenedioxyphenyl)-5-fluoro-2,4-pyrimidinediamine] | 0.252 | > 10
24 | O=C(COc1cccc(Nc2ncc(F)c(Nc3ccc4c(c3)NCCO4)n2)c1)NCCCO [R909252, N4-(1,4-Benzoxazin-6-yl)-5-fluoro-N2-[3-(N-3-hydroxypropylamino)carbonylmethyleneoxyphenyl]-2,4-pyrimidinediamine] | 0.248 | > 10
25 | CNC(=O)C(C)(C)Oc1cccc(Nc2ncc(F)c(Nc3ccc4c(c3)OCCO4)n2)c1 [R926915, N4-(3,4-Ethylenedioxyphenyl)-5-fluoro-N2-[3-[(N-methylamino)carbonyl-1,1-dimethylmethyleneoxy]phenyl]-2,4-pyrimidinediamine] | 1.71 | > 10
26 | CCOC(=O)c1cnc(Nc2ccc(OCC(=O)NC)cc2)nc1Nc1cccc(O)c1 [R925839, 5-Ethoxycarbonyl-N4-(3-hydroxyphenyl)-N2-[4-(N-methylamino)carbonylmethyleneoxyphenyl]-2,4-pyrimidinediamine] | > 10 | > 10
27 | Nc1cccc(Nc2nc(Nc3cccc(NC(=O)CCC(C(=O)O)N4C(=O)c5ccccc5C4=O)c3)ncc2F)c1 (racemic) [R950251, (±)-N4-(3-Aminophenyl)-5-fluoro-N2-(3-(3-carboxy-3-D,L-N-phtaloylamino)propylenecarbonylaminophenyl)-2,4-pyrimidinediamine] | > 10 | > 10
28 | CNC(=O)COc1cc(Nc2ncc(F)c(Nc3cccc(O)c3)n2)ccc1OC [R926829, 5-Fluoro-N4-(3-hydroxyphenyl)-N2-[4-methoxy-3-(N-methylamino)carbonylmethyleneoxyphenyl]-2,4-pyrimidinediamine] | 0.688 | > 10
29 | N2-(Carboxymethyleneaminophenyl)-5-fluoro-N4-[3-(2-hydroxyethyloxy)phenyl]-2,4-pyrimidinediamine [R950230] | 7.91 | > 10
30 | COC(=O)COc1ccc(Nc2ncc(C(=O)OC)c(Nc3ccc(OCC(=O)OC(C)(C)C)cc3)n2)cc1 [R926580, N4-(4-tert-Butoxycarbonylmethyleneoxyphenyl)-N2-(4-methoxycarbonylmethyleneoxyphenyl)-5-methoxycarbonyl-2,4-pyrimidinediamine] | 10 | > 10
31 | COC(=O)c1cc2cc(Nc3nc(Nc4ccc(OCc5nc(-c6ccccc6)no5)cc4)ncc3F)ccc2o1 [R935137, 5-Fluoro-N4-(2-methoxycarbonylbenzofura-5-yl)-N2-[4-(3-phenyl-1,2,4-oxadiazol-5-yl)methyleneoxyphenyl]-2,4-pyrimidinediamine] | 10 | > 10
32 | Nc1ccc(Nc2ncc(F)c(Nc3ccc(N)cc3)n2)cc1 [R950122, N2,N4-Bis(4-aminophenyl)-5-fluoro-2,4-pyrimidinediamine] | 3.02 | > 10
33 | N#CCOc1ccc(Nc2nc(Nc3ccc(OCC(=O)O)cc3)ncc2F)cc1 [R945097, N2-(4-Carboxymethyleneoxyphenyl)-N4-(4-cyanomethyleneoxyphenyl)-5-fluoro-2,4-pyrimidinediamine] | 10 | > 10
